Laboratory results reported in patent US20250098679A1, “HERBICIDAL PYRIDONE DERIVATIVES” (SYNGENTA CROP PROTECTION AG, priority 2021, published 2025).

Key:
Format in all cases: in vivo
[1] = test system: Ipomoea hederacea (IPOHE); experiment: Pre-emergence Test, Ipomoea hederacea (IPOHE); conditions: evaluated after 13 days
[2] = test system: Amaranthus retoflexus (AMARE); experiment: Post-emergence Test, Amaranthus retoflexus (AMARE); set-up: key to percentage damage caused to the plant, AMARE (five-point scale): 5=81-100%, 4=61-80%, 3=41-60%, 2=21-40%, 1=0-20% damage; conditions: evaluated after 13 days
Outline: (§1)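 Scores are percentage plant damage on a 1–5 scale (1=0-20%, 2=21-40%, 3=41-60%, 4=61-80%, 5=81-100%), read 13 days after treatment. Pots received a spray at 1000 g/ha unless otherwise stated, formulated in acetone/water (50:50) containing 0.5% Tween 20.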

Setaria faberi (SETFA) = experiment: Post-emergence Test, Setaria faberi (SETFA); set-up: key to percentage damage caused to the plant, SETFA (five-point scale): 5=81-100%, 4=61-80%, 3=41-60%, 2=21-40%, 1=0-20% damage; conditions: 1000 g/ha, evaluated after 13 days
Outline: as §1

[3] = test system: Ipomoea hederacea (IPOHE); experiment: Post-emergence Test, Ipomoea hederacea (IPOHE); set-up: key to percentage damage caused to the plant, IPOHE (five-point scale): 5=81-100%, 4=61-80%, 3=41-60%, 2=21-40%, 1=0-20% damage; conditions: evaluated after 13 days
Outline: as §1

Zea mays (ZEAMX) [4] = experiment: Pre-emergence Test, Zea mays (ZEAMX); conditions: evaluated after 13 days
[5] = test system: Amaranthus palmeri (AMAPA); experiment: Pre-emergence Test, Amaranthus palmeri (AMAPA); conditions: evaluated after 13 days
[6] = test system: Echinochloa crus-galli (ECHCG); experiment: Post-emergence Test, Echinochloa crus-galli (ECHCG); set-up: key to percentage damage caused to the plant, ECHCG (five-point scale): 5=81-100%, 4=61-80%, 3=41-60%, 2=21-40%, 1=0-20% damage; conditions: evaluated after 13 days; for Post-emergence Test ECHCG, percentage damage caused to the plant (five-point scale): 250 g/Ha (*)
Outline: as §1

[7] = test system: Amaranthus palmeri (AMAPA); experiment: Post-emergence Test, Amaranthus palmeri (AMAPA); set-up: key: 5=81-100%, 4=61-80%, 3=41-60%, 2=21-40%, 1=0-20% damage; conditions: evaluated after 13 days
Outline: as §1

Zea mays (ZEAMX) [8] = experiment: Post-emergence Test, Zea mays (ZEAMX); set-up: key to percentage damage caused to the plant, ZEAMX (five-point scale): 5=81-100%, 4=61-80%, 3=41-60%, 2=21-40%, 1=0-20% damage; conditions: evaluated after 13 days
Outline: as §1

[9] = test system: Amaranthus retoflexus (AMARE); experiment: Pre-emergence Test, Amaranthus retoflexus (AMARE); conditions: evaluated after 13 days
[10] = test system: Echinochloa crus-galli (ECHCG); experiment: Pre-emergence Test, Echinochloa crus-galli (ECHCG); conditions: evaluated after 13 days

SMILES	Pre-emergence Test IPOHE, percentage damage caused to the plant (five-point scale) ([1]; 1000 g/ha)	Post-emergence Test AMARE, percentage damage caused to the plant (five-point scale) ([2]; 250 g/Ha (*))	Post-emergence Test AMARE, percentage damage caused to the plant (five-point scale) ([2]; 1000 g/ha)	Post-emergence Test SETFA, percentage damage caused to the plant (five-point scale) (Setaria faberi (SETFA))	Post-emergence Test IPOHE, percentage damage caused to the plant (five-point scale) ([3]; 250 g/Ha (*))	Post-emergence Test IPOHE, percentage damage caused to the plant (five-point scale) ([3]; 1000 g/ha)	Pre-emergence Test ZEAMX, percentage damage caused to the plant (five-point scale) (Zea mays (ZEAMX) [4]; 1000 g/ha)	Pre-emergence Test AMAPA, percentage damage caused to the plant (five-point scale) ([5]; 1000 g/ha)	Post-emergence Test ECHCG, percentage damage caused to the plant (five-point scale) [6]	Post-emergence Test AMAPA, percentage damage caused to the plant (five-point scale) ([7]; 250 g/Ha (*))	Post-emergence Test AMAPA, percentage damage caused to the plant (five-point scale) ([7]; 1000 g/ha)	Post-emergence Test ZEAMX, percentage damage caused to the plant (five-point scale) (Zea mays (ZEAMX) [8]; 250 g/Ha (*))	Post-emergence Test ZEAMX, percentage damage caused to the plant (five-point scale) (Zea mays (ZEAMX) [8]; 1000 g/ha)	Pre-emergence Test AMARE, percentage damage caused to the plant (five-point scale) ([9]; 1000 g/ha)	Pre-emergence Test ECHCG, percentage damage caused to the plant (five-point scale) ([10]; 1000 g/ha)	also measured
CCn1c(Cn2ccc(-c3cnccn3)n2)cc(=O)c(C(=O)O)c1-c1ccc(Cl)c(Cl)c1 [Compound 203, 2-(3,4-dichlorophenyl)-1-ethyl-4-oxo-6-[(3-pyrazin-2-ylpyrazol-1-yl)methyl]pyridine-3-carboxylic acid]	0	1 (1=0-20%)	0	1 (1=0-20%)	2 (2=21-40%)	1 (1=0-20%)	1 (1=0-20%)	1 (1=0-20%)	1 (1=0-20%)	1 (1=0-20%)	0	1 (1=0-20%)	1 (1=0-20%)	1 (1=0-20%)	2 (2=21-40%)	–
CCn1c(Cn2ccc(-c3ccc(F)cc3)n2)cc(=O)c(C(=O)O)c1-c1ccc(Cl)c(Cl)c1 [Compound 193, 2-(3,4-dichlorophenyl)-1-ethyl-6-[[3-(4-fluorophenyl)pyrazol-1-yl]methyl]-4-oxo-pyridine-3-carboxylic acid]	1 (1=0-20%)	–	–	–	–	–	0	0	–	–	–	–	–	0	0	percentage damage caused to the plant, AMARE (five-point scale) ([2]; 250 g/Ha): 0; percentage damage caused to the plant, AMARE (five-point scale) ([2]; 1000 g/ha): 1 (1=0-20%); percentage damage caused to the plant, SETFA (five-point scale) (Setaria faberi (SETFA)): 0; percentage damage caused to the plant, IPOHE (five-point scale) ([3]; 250 g/Ha): 0; percentage damage caused to the plant, IPOHE (five-point scale) ([3]; 1000 g/ha): 2 (2=21-40%); percentage damage caused to the plant, ECHCG (five-point scale) ([6]; 250 g/Ha): 3 (3=41-60%); percentage damage caused to the plant, AMAPA (five-point scale) ([7]; 250 g/Ha): 0; percentage damage caused to the plant, AMAPA (five-point scale) ([7]; 1000 g/ha): 1 (1=0-20%); percentage damage caused to the plant, ZEAMX (five-point scale) (Zea mays (ZEAMX) [8]; 250 g/Ha): 0; percentage damage caused to the plant, ZEAMX (five-point scale) (Zea mays (ZEAMX) [8]; 1000 g/ha): 1 (1=0-20%)
CCn1c(Cn2ccc(-c3cccs3)n2)cc(=O)c(C(=O)O)c1-c1ccc(Cl)c(Cl)c1 [Compound 194, 2-(3,4-dichlorophenyl)-1-ethyl-4-oxo-6-[[3-(2-thienyl)pyrazol-1-yl]methyl]pyridine-3-carboxylic acid]	2 (2=21-40%)	0	2 (2=21-40%)	3 (3=41-60%)	1 (1=0-20%)	2 (2=21-40%)	1 (1=0-20%)	0	2 (2=21-40%)	0	1 (1=0-20%)	1 (1=0-20%)	1 (1=0-20%)	0	2 (2=21-40%)	Pre-emergence Test IPOHE, percentage damage caused to the plant (five-point scale) ([1]; 250 g/Ha (*)): 1 (1=0-20%); Pre-emergence Test ZEAMX, percentage damage caused to the plant (five-point scale) (Zea mays (ZEAMX) [4]; 250 g/Ha (*)): 0; Pre-emergence Test AMAPA, percentage damage caused to the plant (five-point scale) ([5]; 250 g/Ha (*)): 0; Pre-emergence Test AMARE, percentage damage caused to the plant (five-point scale) ([9]; 250 g/Ha (*)): 0; Pre-emergence Test ECHCG, percentage damage caused to the plant (five-point scale) ([10]; 250 g/Ha (*)): 1 (1=0-20%)
